Reference: patent US9655980B2, “Theranostic platform for targeted cancer therapy and drug delivery monitoring” (University of Pittsburgh—Of the Commonwealth System of …, priority 2012, dated 2017)
Values joined by “and” are separate entries in the source; they are usually repeats but may differ in a detail not shown here. Equal entries are not always repeated.

Legend:
[1] = Solubility / hydrophilicity observations; assay type: physicochemical; conditions: for hydrophilicity: as sodium salts
Text: The most challenging step encountered during the synthesis of QR-G1-COOH and QR-G2-COOH was the ring cyclization of biperylene 6. Many quaterrylenes reported were synthesized through a base-assisted cyclodehydrogenation reaction using molten KOH/glucose, tert-BuOK/DBN in diglyme, or K2CO3 in ethanolamine. However, these reaction systems are not applicable for the synthesis of quaterrylene 7 because of the high reactivity of aldehyde under the harsh basic conditions. Recently, Müllen's group reported milder conditions for the preparation of uaterrylenedicarboximides and rylenediimides by the Lewis acids FeCl3/CH3NO2 and AlCl3/chlorobenzene. […] The following reduction of aldehyde groups on 7 by NaBH4 yielded benzyl alcohol 8 with a relatively low yield (32%). Coupling quaterrylene 8 with dendrons 9 and 10 provided the dendrimers QR-G1-triester and QR-G2-triester in 35% and 28% yields after purification by column chromatography.

[2] = UV-vis absorption and emission spectra (photophysical properties); assay type: physicochemical; conditions: DMSO; for Fluorescence quantum yield Φ: ICG in methanol as standard
[3] = Photostability: NIR absorbance under ambient light; assay type: physicochemical; conditions: for decrease of absorbance after exposure to ambient light: 2 hours, absorption maximum wavelength; for NIR absorbance remaining: 31 days ambient light; for photostability compared with ICG: ambient light
Description: FIG. 3 is a graph showing the photostability of QR-G1-COOH, QR-G2-COOH and ICG in DMSO. Samples were exposed to the ambient light and the change of optical density at absorption maximum wavelength was monitored over time. All samples have the initial absorbance of about 1.2 at the absorption maximum wavelength. The signals were normalized against the values at 0 hour.
To evaluate the photostability of QR-G1-COOH and QR-G2-COOH, the NIR absorbance of these molecules exposed to ambient light was monitored and the results were compared with that of the FDA approved NIR dye, indocyanine green (ICG).

[4] = UV-vis absorption and emission spectra (photophysical properties); assay type: physicochemical
Text: FIG. […]
Similar observations have been reported on extended perylenediimides. […] This fluorescence enhancement in pluronic compared to water can be explained by the disruption of the non-fluorescent dye aggregates by pluronic, which formed micelles with dye monomers inside. The strong absorption in the NIR region and weak emission may render QR-G1-COOH to a promising photoacoustic imaging agent.

[5] = system: wild-type mouse malignant astrocytoma DBT (wt-DBT) cells; assay: In vitro cytotoxicity, hemocytometer-based trypan blue dye exclusion; assay type: cell-based; conditions: for cell viability: 2×10^−7 and 1×10^−5 M, 48 h
Text: FIG. 4 is a graph showing the results cell viability tests of QR-G1-COOH and QR-G2-COOH on the wt-DBT cell line. Values are presented as mean±standard deviation.
The in vitro cytotoxicity of QR-G1-COOH and QR-G2-COOH against wild-type mouse malignant astrocytoma DBT (wt-DBT) cells was investigated using a hemocytometer-based trypan blue dye exclusion method.

hydrophilicity [1]	λem [2]	Fluorescence quantum yield Φ [2]	decrease of absorbance after exposure to ambient light ([3]; DMSO)	absorbance change after illumination ([3]; DMSO, 3 days ambient light)	NIR absorbance remaining ([3]; DMSO)	photostability compared with ICG [3]	λem ([4]; methanol, excited at 720 nm)	ε ([4]; water)	λabs ([4]; water)	Structure (SMILES)	ε (molar extinction coefficient) ([4]; methanol)	cytotoxicity to DBT cells [5]	cell viability ([5]; wt-DBT cells)	other results
high hydrophilicity	816 nm	0.32%	no significant absorbance change	3%	77%	dramatically more photostable than ICG	815 nm	0.56 10^5 M^−1 cm^−1	743 nm	CC(C)c1cccc(C(C)C)c1N1C(=O)c2cc(Oc3ccc(COC(=O)CCC(=O)NC(CCC(=O)NC(CCC(=O)O)(CCC(=O)O)CCC(=O)O)(CCC(=O)NC(CCC(=O)O)(CCC(=O)O)CCC(=O)O)CCC(=O)NC(CCC(=O)O)(CCC(=O)O)CCC(=O)O)cc3)c3c4ccc5c6ccc7c8c(Oc9ccc(COC(=O)CCC(=O)NC(CCC(=O)NC(CCC(=O)O)(CCC(=O)O)CCC(=O)O)(CCC(=O)NC(CCC(=O)O)(CCC(=O)O)CCC(=O)O)CCC(=O)NC(CCC(=O)O)(CCC(=O)O)CCC(=O)O)cc9)cc9c%10c(cc(Oc%11ccc(COC(=O)CCC(=O)NC(CCC(=O)NC(CCC(=O)O)(CCC(=O)O)CCC(=O)O)(CCC(=O)NC(CCC(=O)O)(CCC(=O)O)CCC(=O)O)CCC(=O)NC(CCC(=O)O)(CCC(=O)O)CCC(=O)O)cc%11)c(c%11ccc(c%12ccc(c%13c(Oc%14ccc(COC(=O)CCC(=O)NC(CCC(=O)NC(CCC(=O)O)(CCC(=O)O)CCC(=O)O)(CCC(=O)NC(CCC(=O)O)(CCC(=O)O)CCC(=O)O)CCC(=O)NC(CCC(=O)O)(CCC(=O)O)CCC(=O)O)cc%14)cc(c2c3%13)C1=O)c4c5%12)c6c7%11)c%108)C(=O)N(c1c(C(C)C)cccc1C(C)C)C9=O [QR-G2-COOH]	121000 M⁻¹ cm⁻¹	low cytotoxicity	about 90%	quantum yield relative to QR-G1-COOH ([4]; Table 1): roughly two times higher; ε ([4]; methanol, values in order of the listed absorption bands): 1.21 10^5 M^−1 cm^−1; λem ([4]; water, pluronic ~10 wt %/wt): 809 nm
										C[S+](C)[O-] [DMSO, reference compound]				live cells (positive control group) ([5]; wt-DBT cells, 5% DMSO, after 48 h): 66.9%
			48%							CC1(C)C(/C=C/C=C/C=C/C=C2\N(CCCCS(=O)(=O)O)c3ccc4ccccc4c3C2(C)C)=[N+](CCCCS(=O)(=O)[O-])c2ccc3ccccc3c21 [ICG, indocyanine green, reference compound]				absorbance observed after illumination ([3]; DMSO, 3 days ambient light): no significant absorbance
high hydrophilicity	816 nm	0.11%	no significant absorbance change	1%	85%	dramatically more photostable than ICG	813 nm	0.74 10^5 M^−1 cm^−1	739 nm	CC(C)c1cccc(C(C)C)c1N1C(=O)c2cc(Oc3ccc(COC(=O)CCC(=O)NC(CCC(=O)O)(CCC(=O)O)CCC(=O)O)cc3)c3c4ccc5c6ccc7c8c(Oc9ccc(COC(=O)CCC(=O)NC(CCC(=O)O)(CCC(=O)O)CCC(=O)O)cc9)cc9c%10c(cc(Oc%11ccc(COC(=O)CCC(=O)NC(CCC(=O)O)(CCC(=O)O)CCC(=O)O)cc%11)c(c%11ccc(c%12ccc(c%13c(Oc%14ccc(COC(=O)CCC(=O)NC(CCC(=O)O)(CCC(=O)O)CCC(=O)O)cc%14)cc(c2c3%13)C1=O)c4c5%12)c6c7%11)c%108)C(=O)N(c1c(C(C)C)cccc1C(C)C)C9=O [QR-G1-COOH]	146000 M⁻¹ cm⁻¹ and 143000 M⁻¹ cm⁻¹	low cytotoxicity	about 90%	fluorescence in pluronic compared to water ([4]; 0.4% wt/wt of pluronic): large fluorescence enhancement; λabs ([4]; methanol): 771 nm and 728 nm; λem ([4]; water, pluronic ~0.4 wt %/wt): 807 nm; fluorescence in water ([4]; water, excited at 720 nm): nearly no fluorescence
										CC(C)c1cccc(C(C)C)c1N1C(=O)c2cc(Oc3ccc(COC(=O)CCC(=O)NC(CCC(=O)OC(C)(C)C)(CCC(=O)OC(C)(C)C)CCC(=O)OC(C)(C)C)cc3)c3c4ccc5c6ccc7c8c(Oc9ccc(COC(=O)CCC(=O)NC(CCC(=O)OC(C)(C)C)(CCC(=O)OC(C)(C)C)CCC(=O)OC(C)(C)C)cc9)cc9c%10c(cc(Oc%11ccc(COC(=O)CCC(=O)NC(CCC(=O)OC(C)(C)C)(CCC(=O)OC(C)(C)C)CCC(=O)OC(C)(C)C)cc%11)c(c%11ccc(c%12ccc(c%13c(Oc%14ccc(COC(=O)CCC(=O)NC(CCC(=O)OC(C)(C)C)(CCC(=O)OC(C)(C)C)CCC(=O)OC(C)(C)C)cc%14)cc(c2c3%13)C1=O)c4c5%12)c6c7%11)c%108)C(=O)N(c1c(C(C)C)cccc1C(C)C)C9=O [QR-G1-triester]				solubility in organic solvents ([1]; toluene, dichloromethane, chloroform, ethyl acetate, methanol): highly soluble
